Assay results: PubChem BioAssay (NCI)
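Assay format: 96-well plates, 48-hour exposure. TGI: concentration producing complete growth inhibition.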

Assays:
Assay in all cases: DTP human tumour cell line panel, 48 h
TK-10 renal = tested on: TK-10 renal
SK-MEL-28 melanoma = tested on: SK-MEL-28 melanoma
RPMI-8226 leukemia = tested on: RPMI-8226 leukemia
OVCAR-5 ovarian = tested on: OVCAR-5 ovarian
HOP-18 NSCLC = tested on: HOP-18 NSCLC
ACHN renal = tested on: ACHN renal
HL-60(TB) leukemia = tested on: HL-60(TB) leukemia
U251 CNS = tested on: U251 CNS
M19-MEL melanoma = tested on: M19-MEL melanoma
OVCAR-3 ovarian = tested on: OVCAR-3 ovarian
K-562 leukemia = tested on: K-562 leukemia
KM12 colon = tested on: KM12 colon
SK-MEL-5 melanoma = tested on: SK-MEL-5 melanoma
SF-295 CNS = tested on: SF-295 CNS
NCI-H23 lung = tested on: NCI-H23 lung
SK-MEL-2 melanoma = tested on: SK-MEL-2 melanoma
A549 NSCLC = tested on: A549 NSCLC
DLD-1 colon = tested on: DLD-1 colon
LOX IMVI melanoma = tested on: LOX IMVI melanoma
IGROV1 ovarian = tested on: IGROV1 ovarian
UO-31 renal = tested on: UO-31 renal
EKVX NSCLC = tested on: EKVX NSCLC
CCRF-CEM leukemia = tested on: CCRF-CEM leukemia
NCI-H226 lung = tested on: NCI-H226 lung
CAKI-1 renal = tested on: CAKI-1 renal
LXFL 529 NSCLC = tested on: LXFL 529 NSCLC
OVCAR-8 ovarian = tested on: OVCAR-8 ovarian
HOP-92 NSCLC = tested on: HOP-92 NSCLC
SR leukemia = tested on: SR leukemia
KM20L2 colon = tested on: KM20L2 colon
COLO 205 colon = tested on: COLO 205 colon
SF-539 CNS = tested on: SF-539 CNS
DMS 273 small cell lung = tested on: DMS 273 small cell lung
SF-268 CNS = tested on: SF-268 CNS
M14 melanoma = tested on: M14 melanoma
SK-OV-3 ovarian = tested on: SK-OV-3 ovarian
HCT-116 colon = tested on: HCT-116 colon
MOLT-4 leukemia = tested on: MOLT-4 leukemia
NCI-H460 lung = tested on: NCI-H460 lung
HT29 colon = tested on: HT29 colon
HCT-15 colon = tested on: HCT-15 colon
MALME-3M melanoma = tested on: MALME-3M melanoma
HOP-62 NSCLC = tested on: HOP-62 NSCLC
UACC-62 melanoma = tested on: UACC-62 melanoma
OVCAR-4 ovarian = tested on: OVCAR-4 ovarian
SNB-19 CNS = tested on: SNB-19 CNS
NCI-H522 lung = tested on: NCI-H522 lung
XF 498 CNS = tested on: XF 498 CNS
RXF 393 renal = tested on: RXF 393 renal
HCC-2998 colon = tested on: HCC-2998 colon
SNB-75 CNS = tested on: SNB-75 CNS
SNB-78 CNS = tested on: SNB-78 CNS
UACC-257 melanoma = tested on: UACC-257 melanoma
SN12C renal = tested on: SN12C renal
786-0 renal = tested on: 786-0 renal
A498 renal = tested on: A498 renal
DMS 114 small cell lung = tested on: DMS 114 small cell lung
SW-620 colon = tested on: SW-620 colon

Structure (SMILES): CC(=O)Nc1ccc(/C=C(\NC(=O)c2ccccc2)C(=O)NNS(=O)(=O)c2ccc(C)cc2)cc1
- TGI (TK-10 renal): > 100 µM
- TGI (SK-MEL-28 melanoma): > 100 µM
- TGI (RPMI-8226 leukemia): 49 µM
- TGI (OVCAR-5 ovarian): > 100 µM
- TGI (HOP-18 NSCLC): > 100 µM
- TGI (ACHN renal): > 100 µM
- TGI (HL-60(TB) leukemia): > 100 µM
- TGI (U251 CNS): > 100 µM
- TGI (M19-MEL melanoma): > 100 µM
- TGI (OVCAR-3 ovarian): > 100 µM
- TGI (K-562 leukemia): > 100 µM
- TGI (KM12 colon): > 100 µM
- TGI (SK-MEL-5 melanoma): > 100 µM
- TGI (SF-295 CNS): > 100 µM
- TGI (NCI-H23 lung): > 100 µM
- TGI (SK-MEL-2 melanoma): > 100 µM
- TGI (A549 NSCLC): > 100 µM
- TGI (DLD-1 colon): > 100 µM
- TGI (LOX IMVI melanoma): 38.2 µM
- TGI (IGROV1 ovarian): > 100 µM
- TGI (UO-31 renal): > 100 µM
- TGI (EKVX NSCLC): > 100 µM
- TGI (CCRF-CEM leukemia): > 100 µM
- TGI (NCI-H226 lung): > 100 µM
- TGI (CAKI-1 renal): > 100 µM
- TGI (LXFL 529 NSCLC): > 100 µM
- TGI (OVCAR-8 ovarian): > 100 µM
- TGI (HOP-92 NSCLC): > 100 µM
- TGI (SR leukemia): 37.8 µM
- TGI (KM20L2 colon): > 100 µM
- TGI (COLO 205 colon): 71.2 µM
- TGI (SF-539 CNS): > 100 µM
- TGI (DMS 273 small cell lung): 34.8 µM
- TGI (SF-268 CNS): > 100 µM
- TGI (M14 melanoma): > 100 µM
- TGI (SK-OV-3 ovarian): > 100 µM
- TGI (HCT-116 colon): > 100 µM
- TGI (MOLT-4 leukemia): > 100 µM
- TGI (NCI-H460 lung): > 100 µM
- TGI (HT29 colon): > 100 µM
- TGI (HCT-15 colon): 41.1 µM
- TGI (MALME-3M melanoma): > 100 µM
- TGI (HOP-62 NSCLC): > 100 µM
- TGI (UACC-62 melanoma): > 100 µM
- TGI (OVCAR-4 ovarian): > 100 µM
- TGI (SNB-19 CNS): > 100 µM
- TGI (NCI-H522 lung): > 100 µM
- TGI (XF 498 CNS): > 100 µM
- TGI (RXF 393 renal): > 100 µM
- TGI (HCC-2998 colon): > 100 µM
- TGI (SNB-75 CNS): > 100 µM
- TGI (SNB-78 CNS): > 100 µM
- TGI (UACC-257 melanoma): > 100 µM
- TGI (SN12C renal): > 100 µM

Structure (SMILES): O=C1C2=C(c3ccccc31)C(c1ccc(F)cc1)N1C(=O)CCSC1=N2 (configuration not stated)
- TGI (TK-10 renal): > 100 µM
- TGI (SK-MEL-28 melanoma): > 100 µM
- TGI (RPMI-8226 leukemia): > 100 µM
- TGI (OVCAR-5 ovarian): > 100 µM
- TGI (ACHN renal): > 100 µM
- TGI (HL-60(TB) leukemia): > 100 µM
- TGI (U251 CNS): > 100 µM
- TGI (M19-MEL melanoma): > 100 µM
- TGI (OVCAR-3 ovarian): > 100 µM
- TGI (K-562 leukemia): > 100 µM
- TGI (786-0 renal): > 100 µM
- TGI (KM12 colon): > 100 µM
- TGI (SK-MEL-5 melanoma): > 100 µM
- TGI (SF-295 CNS): > 100 µM
- TGI (NCI-H23 lung): > 100 µM
- TGI (SK-MEL-2 melanoma): > 100 µM
- TGI (A549 NSCLC): > 100 µM
- TGI (DLD-1 colon): > 100 µM
- TGI (IGROV1 ovarian): > 100 µM
- TGI (UO-31 renal): > 100 µM
- TGI (EKVX NSCLC): > 100 µM
- TGI (CCRF-CEM leukemia): > 100 µM
- TGI (NCI-H226 lung): > 100 µM
- TGI (CAKI-1 renal): > 100 µM
- TGI (LXFL 529 NSCLC): > 100 µM
- TGI (OVCAR-8 ovarian): > 100 µM
- TGI (HOP-92 NSCLC): 97.7 µM
- TGI (A498 renal): > 100 µM
- TGI (KM20L2 colon): > 100 µM
- TGI (COLO 205 colon): > 100 µM
- TGI (SF-539 CNS): > 100 µM
- TGI (DMS 273 small cell lung): > 100 µM
- TGI (SF-268 CNS): > 100 µM
- TGI (M14 melanoma): > 100 µM
- TGI (SK-OV-3 ovarian): > 100 µM
- TGI (HCT-116 colon): > 100 µM
- TGI (MOLT-4 leukemia): > 100 µM
- TGI (NCI-H460 lung): > 100 µM
- TGI (HT29 colon): > 100 µM
- TGI (HCT-15 colon): > 100 µM
- TGI (MALME-3M melanoma): > 100 µM
- TGI (HOP-62 NSCLC): > 100 µM
- TGI (UACC-62 melanoma): > 100 µM
- TGI (OVCAR-4 ovarian): > 100 µM
- TGI (SNB-19 CNS): > 100 µM
- TGI (DMS 114 small cell lung): > 100 µM
- TGI (NCI-H522 lung): > 100 µM
- TGI (XF 498 CNS): > 100 µM
- TGI (HCC-2998 colon): > 100 µM
- TGI (SW-620 colon): > 100 µM
- TGI (SNB-75 CNS): > 100 µM
- TGI (UACC-257 melanoma): > 100 µM
- TGI (SN12C renal): > 100 µM
